Read-outs that look alike come from different tables or passages of the source. Numbered stars: 1 amine (or outer) side, 2 acyl side, 3 side chain; on linkers, the order of the positions; unused ones are H or OH. Square brackets hold non-standard residues; d marks the D form. Side chains are listed from the residue outwards. Peptide text beside a SMILES is read from it. * marks the point of attachment. C20 diacid = O=C(O)CCCCCCCCCCCCCCCCCCC(=O)*; γGlu = O=C(O)[C@H](CCC(=O)[*:2])N[*:1]; AEEA = NCCOCCOCC(=O)O; Aib = CC(C)(N)C(=O)O
Assays:
[1] = Turbidity of crude library peptides (absorbance at 600 nm); assay type: physicochemical; settings: Physical stability of peptides
In short: (§1)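 Turbidity is the absorbance at 600 nm, taken before heating. Fibril signal is the mean ThT emission at 480 nm (450 nm excitation), read every 10 min over 72 h at 40° C with 700 rpm shaking between reads. Peptides at 267 μM, pH 4.0 acetate or pH 7.0 phosphate buffer (50 mM), 4 μM ThT final.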

[2] = Fibril formation of crude library peptides (Thioflavin T); assay type: physicochemical; design: key: average ThT fluorescence emission at 480 nm (ex 450 nm), raw units; settings: Physical stability of peptides
In short: as §1

[3] = biological target: GLP1R (Homo sapiens, UniProt P43220); assay: hGLP1R potency, cAMP accumulation in CHO-K1 cells stably overexpressing hGLP1R; assay type: cell-based; design: host or cells: CHO-K1; settings: for Selectivity: SCTR EC50/GLP1R EC50 ratio; for EC50: cAMP accumulation, CHO-K1 cells overexpressing hGLP1R; for SCTR EC50/GLP1R EC50 ratio: selectivity for hGLP1R over hSCTR, cAMP accumulation in CHO-K1 cells
GLP1R, sequence (P43220 24-463): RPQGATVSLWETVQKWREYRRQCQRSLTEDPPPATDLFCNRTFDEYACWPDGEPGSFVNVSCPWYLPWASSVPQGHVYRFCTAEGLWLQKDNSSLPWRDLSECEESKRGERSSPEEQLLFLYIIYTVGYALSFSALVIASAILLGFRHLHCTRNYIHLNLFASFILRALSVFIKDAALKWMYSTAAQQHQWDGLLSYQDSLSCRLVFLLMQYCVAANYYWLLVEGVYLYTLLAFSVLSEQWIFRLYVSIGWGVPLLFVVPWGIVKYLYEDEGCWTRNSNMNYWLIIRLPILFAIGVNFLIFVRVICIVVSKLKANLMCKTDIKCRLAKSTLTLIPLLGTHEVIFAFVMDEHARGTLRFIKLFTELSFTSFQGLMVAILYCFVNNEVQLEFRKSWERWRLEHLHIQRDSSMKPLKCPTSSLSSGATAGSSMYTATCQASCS
In short: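 2000 cells/well, DPBS + 0.05% casein + 0.5 mM IBMX; 30 min RT stimulation; HTRF cAMP detection after 1 h. Purified: 3-fold ×11, n=2; crude: 10-fold ×5, n=1. EC50 by variable-slope fit.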

[4] = biological target: SCTR (Homo sapiens, UniProt P47872); assay: hSCTR potency, cAMP accumulation in CHO-K1 cells stably overexpressing hSCTR; assay type: cell-based; design: alternatively Euroscreen ES-712-AF; FAST-0161L; host or cells: CHO-K1; settings: cAMP accumulation, CHO-K1 cells overexpressing hSCTR
SCTR, sequence (P47872 23-440): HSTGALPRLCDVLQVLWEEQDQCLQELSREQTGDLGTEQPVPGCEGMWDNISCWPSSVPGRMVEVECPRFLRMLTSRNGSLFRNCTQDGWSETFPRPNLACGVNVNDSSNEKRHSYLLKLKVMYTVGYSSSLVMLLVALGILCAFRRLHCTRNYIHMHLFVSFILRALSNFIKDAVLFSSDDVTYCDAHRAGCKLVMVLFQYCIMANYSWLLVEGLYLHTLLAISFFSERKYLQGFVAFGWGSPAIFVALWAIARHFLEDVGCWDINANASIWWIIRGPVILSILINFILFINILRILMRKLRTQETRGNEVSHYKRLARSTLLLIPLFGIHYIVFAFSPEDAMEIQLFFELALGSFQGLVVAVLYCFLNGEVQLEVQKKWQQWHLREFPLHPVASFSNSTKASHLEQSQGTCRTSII
In short: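 Thawed CHO-K1 cells carrying stable hSCTR are plated into casein/IBMX buffer (0.05%, 0.5 mM), dosed immediately for 30 min at room temperature, then cAMP is detected by TR-FRET. Purified peptides run as 11 three-fold dilutions in duplicate, and curves are fitted with variable slope.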

[5] = read-out: pEC50 hGLPR1 (converted)
[6] = read-out: pEC50 hSCTR (converted)
[7] = read-out: hGLP1R pEC50 (converted)
[8] = read-out: hSCTR pEC50 (converted)

SMILES | Turbidity (pH 7) [1] | Fibril formation [2] | Selectivity [3] | EC50 [3, 5] [nM] | EC50 [4, 6] [nM] | EC50 [3, 7] [nM] | SCTR EC50/GLP1R EC50 ratio [3] | EC50 [4, 8] [nM]
CC(C)C[C@H](NC(=O)[C@H](Cc1ccccc1)NC(=O)[C@H](CCCNC(=N)N)NC(=O)[C@H](CCC(N)=O)NC(=O)[C@H](CCC(=O)O)NC(=O)[C@H](C)NC(=O)[C@H](C)NC(=O)C(C)(C)NC(=O)[C@H](CCC(=O)O)NC(=O)[C@H](CCCCNC(=O)COCCOCCNC(=O)COCCOCCNC(=O)CC[C@H](NC(=O)CCCCCCCCCCCCCCCCCCC(=O)O)C(=O)O)NC(=O)[C@H](CC(C)C)NC(=O)[C@@H](NC(=O)[C@H](CO)NC(=O)[C@@H](NC(=O)[C@H](CC(=O)O)NC(=O)[C@H](CO)NC(=O)[C@@H](NC(=O)[C@H](Cc1ccccc1)NC(=O)[C@@H](NC(=O)CNC(=O)[C@H](CCC(=O)O)NC(=O)C(C)(C)NC(=O)[C@@H](N)Cc1c[nH]cn1)[C@@H](C)O)[C@@H](C)O)C(C)C)[C@@H](C)O)C(=O)N[C@@H](CCC(=O)O)C(=O)N[C@@H](Cc1c[nH]cn1)C(=O)N[C@@H](CC(C)C)C(=O)N[C@H](C(N)=O)C(C)C [compound 16] (H-H[Aib]EGTFTSDVSTLK([AEEA-AEEA-γGlu-C20 diacid])E[Aib]AAEQRFLEHLV-NH2) | 0.08 | 11719 | 2876 | 0.0398 | 126 |  |  | 
CC(C)C[C@H](NC(=O)[C@H](Cc1ccccc1)NC(=O)[C@H](CCCNC(=N)N)NC(=O)[C@H](CCC(N)=O)NC(=O)[C@H](C)NC(=O)[C@H](C)NC(=O)[C@H](C)NC(=O)[C@@H](NC(=O)[C@H](CCC(=O)O)NC(=O)[C@H](CCCCNC(=O)COCCOCCNC(=O)COCCOCCNC(=O)CC[C@H](NC(=O)CCCCCCCCCCCCCCCCCCC(=O)O)C(=O)O)NC(=O)[C@H](CC(C)C)NC(=O)[C@H](Cc1ccccc1)NC(=O)[C@H](CO)NC(=O)[C@@H](NC(=O)[C@H](CC(=O)O)NC(=O)[C@H](CO)NC(=O)[C@@H](NC(=O)[C@H](Cc1ccccc1)NC(=O)[C@@H](NC(=O)CNC(=O)[C@H](CCC(=O)O)NC(=O)C(C)(C)NC(=O)[C@@H](N)Cc1c[nH]cn1)[C@@H](C)O)[C@@H](C)O)C(C)C)[C@@H](C)O)C(=O)N[C@@H](CCC(=O)O)C(=O)N[C@@H](Cc1c[nH]cn1)C(=O)N[C@@H](CC(C)C)C(=O)N[C@H](C(N)=O)C(C)C [compound 44] (H-H[Aib]EGTFTSDVSFLK([AEEA-AEEA-γGlu-C20 diacid])ETAAAQRFLEHLV-NH2) | 0.08 | 10742 | 114525 | 0.0316 | 3980 |  |  | 
CC(C)C[C@H](NC(=O)[C@H](Cc1ccccc1)NC(=O)[C@H](CCCNC(=N)N)NC(=O)[C@H](CCC(N)=O)NC(=O)[C@H](C)NC(=O)[C@H](C)NC(=O)[C@H](C)NC(=O)[C@H](CCC(=O)O)NC(=O)[C@H](CCC(=O)O)NC(=O)[C@H](CCCCNC(=O)COCCOCCNC(=O)COCCOCCNC(=O)CC[C@H](NC(=O)CCCCCCCCCCCCCCCCCCC(=O)O)C(=O)O)NC(=O)[C@H](CC(C)C)NC(=O)[C@@H](NC(=O)[C@H](CO)NC(=O)[C@@H](NC(=O)[C@H](CC(=O)O)NC(=O)[C@H](CO)NC(=O)[C@@H](NC(=O)[C@H](Cc1ccccc1)NC(=O)[C@@H](NC(=O)CNC(=O)[C@H](CCC(=O)O)NC(=O)C(C)(C)NC(=O)[C@@H](N)Cc1c[nH]cn1)[C@@H](C)O)[C@@H](C)O)C(C)C)C(C)C)C(=O)N[C@@H](CCC(=O)O)C(=O)N[C@@H](Cc1c[nH]cn1)C(=O)N[C@@H](CC(C)C)C(=O)N[C@H](C(N)=O)C(C)C [compound 28] (H-H[Aib]EGTFTSDVSVLK([AEEA-AEEA-γGlu-C20 diacid])EEAAAQRFLEHLV-NH2) | 0.09 | 7910 | 55501 | 0.02 | 1260 |  |  | 
CC(C)C[C@H](NC(=O)[C@H](Cc1ccccc1)NC(=O)[C@H](CCCNC(=N)N)NC(=O)[C@H](CCC(N)=O)NC(=O)[C@H](CO)NC(=O)[C@H](C)NC(=O)[C@H](C)NC(=O)[C@H](Cc1ccccc1)NC(=O)[C@H](CCC(=O)O)NC(=O)[C@H](CCCCNC(=O)COCCOCCNC(=O)COCCOCCNC(=O)CC[C@H](NC(=O)CCCCCCCCCCCCCCCCCCC(=O)O)C(=O)O)NC(=O)[C@H](CC(C)C)NC(=O)[C@H](Cc1ccccc1)NC(=O)[C@H](CO)NC(=O)[C@@H](NC(=O)[C@H](CC(=O)O)NC(=O)[C@H](CO)NC(=O)[C@@H](NC(=O)[C@H](Cc1ccccc1)NC(=O)[C@@H](NC(=O)CNC(=O)[C@H](CCC(=O)O)NC(=O)C(C)(C)NC(=O)[C@@H](N)Cc1c[nH]cn1)[C@@H](C)O)[C@@H](C)O)C(C)C)C(=O)N[C@@H](CCC(=O)O)C(=O)N[C@@H](Cc1c[nH]cn1)C(=O)N[C@@H](CC(C)C)C(=O)N[C@H](C(N)=O)C(C)C [compound 91] (H-H[Aib]EGTFTSDVSFLK([AEEA-AEEA-γGlu-C20 diacid])EFAASQRFLEHLV-NH2) | 0.42 | 260000 |  |  |  | 0.316 | 101438 | 31600

Further lines, results first:

Turbidity (pH 7) [1] | Fibril formation [2] | Selectivity [3] | EC50 [3, 5] [nM] | EC50 [4, 6] [nM] | EC50 [3, 7] [nM] | SCTR EC50/GLP1R EC50 ratio [3] | EC50 [4, 8] [nM] | SMILES
0.08 | 4789 |  |  |  | 0.02 | 11362 | 251 | CC(C)C[C@H](NC(=O)[C@H](Cc1ccccc1)NC(=O)[C@H](CCCNC(=N)N)NC(=O)[C@H](CCC(N)=O)NC(=O)[C@H](CC(C)C)NC(=O)C(C)(C)NC(=O)[C@H](C)NC(=O)[C@H](CCC(=O)O)NC(=O)[C@H](CCC(=O)O)NC(=O)[C@H](Cc1c[nH]cn1)NC(=O)[C@H](CC(C)C)NC(=O)[C@H](Cc1ccc(O)cc1)NC(=O)[C@H](CO)NC(=O)[C@@H](NC(=O)[C@H](CC(=O)O)NC(=O)[C@H](CO)NC(=O)[C@@H](NC(=O)[C@H](Cc1ccccc1)NC(=O)[C@@H](NC(=O)CNC(=O)[C@H](CCC(=O)O)NC(=O)C(C)(C)NC(=O)[C@@H](N)Cc1c[nH]cn1)[C@@H](C)O)[C@@H](C)O)C(C)C)C(=O)N[C@@H](CCC(=O)O)C(=O)N[C@@H](CCCCNC(=O)COCCOCCNC(=O)COCCOCCNC(=O)CC[C@H](NC(=O)CCCCCCCCCCCCCCCCCCC(=O)O)C(=O)O)C(=O)N[C@@H](CC(C)C)C(=O)N[C@H](C(N)=O)C(C)C [compound 164] (H-H[Aib]EGTFTSDVSYLHEEA[Aib]LQRFLEK([AEEA-AEEA-γGlu-C20 diacid])LV-NH2)
0.69 | 257400 |  |  |  | 0.0501 | 4280 | 200 | CC[C@H](C)[C@H](NC(=O)[C@H](Cc1ccccc1)NC(=O)[C@H](CCCNC(=N)N)NC(=O)[C@H](CCC(N)=O)NC(=O)[C@H](CC(C)C)NC(=O)[C@H](C)NC(=O)[C@H](C)NC(=O)CNC(=O)[C@H](CCC(=O)O)NC(=O)[C@H](CC(C)C)NC(=O)[C@H](CC(C)C)NC(=O)[C@H](Cc1ccc(O)cc1)NC(=O)[C@H](CO)NC(=O)[C@@H](NC(=O)[C@H](CC(=O)O)NC(=O)[C@H](CO)NC(=O)[C@@H](NC(=O)[C@H](Cc1ccccc1)NC(=O)[C@@H](NC(=O)CNC(=O)[C@H](CCC(=O)O)NC(=O)C(C)(C)NC(=O)[C@@H](N)Cc1c[nH]cn1)[C@@H](C)O)[C@@H](C)O)C(C)C)C(=O)N[C@@H](CCC(N)=O)C(=O)N[C@@H](Cc1c[nH]c2ccccc12)C(=O)N[C@@H](CC(C)C)C(=O)N[C@H](C(N)=O)C(C)C [compound 181] (H-H[Aib]EGTFTSDVSYLLEGAALQRFIQWLV-NH2)
